pEC50: −log10 of the molar value. Where two headings read alike, the source gives them in different places.
Target: T1, CFTR ΔF508 (Homo sapiens, UniProt P13569, DEL508-508)
T1 construct: bronchial epithelial cells isolated from CF patients homozygous for the CFTR ΔF508 mutation; McGill University; Asterand; University of North Carolina hAEC-CF; host or cells: primary human bronchial epithelial cells from CF patients homozygous for ΔF508
Assay: Chronic TECC assay on primary bronchial epithelial cells (corrector, co-corrector and potentiator)
Assay type: cell-based
Description: Primary Bronchial Epithelial Cells Protocol
The TECC (Tranepithelial Clamp Circuit, EP-design) assay measures the functionality of the cystic fibrosis Transmembrane Conductance regulator (CFTR) by measuring the short circuit current (Isc) generated over the basolateral and apical membrane of lung epithelial cells. In TECC the transepithelial potential PD and transepithelial resistance (Rt)) are measured in an open circuit and transformed to Ieq using Ohm's law. 24 Wells can be measured simultaneously allowing a higher throughput compared to Ussing chambers.
For this purpose, bronchial epithelial cells isolated from CF patients homozygous for the CFTR ΔF508 mutation (hAEC-CF, Epithelix, Geneva, Switzerland; McGill University, Montreal, Qc; Asterand, Detroit, Mich.; University of North Carolina, Chapel Hill, N.C.) are plated on type IV collagen-coated Transwell® supports (Costar). Human airway epithelia are generated by provision of an air-liquid interface for 21 days to form well-differentiated polarized cultures that resemble in vivo pseudo-stratified ciliated epithelium (Fulcher, M. L., Gabriel, S., Burns, K. A., Yankaskas, J. R., Randell, S. H., 2005. Well-differentiated human airway epithelial cell cultures. Methods Mol. Med. 107, 183-206). The differentiated cells are treated with test corrector compound(s) (corrector alone or in combination with co-corrector, 4-[(2R,4R)-4-({[1-(2,2-difluoro-1,3-benzodioxol-5-yl)cyclopropyl]carbonyl}amino)-7-methoxy-3,4-dihydro-2H-chromen-2-yl]benzoic acid (G924806/A-1618261) (“acute”) or test corrector compounds, co-corrector and potentiator, N-(3-carbamoyl-5,5,7,7-tetramethyl-4,7-dihydro-5H-thieno[2,3-c]pyran-2-yl)-1H-pyrazole-5-carboxamide GLPG1837, (“chronic”) for 24 hours basolaterally to allow sufficient expression of properly folded CFTR protein on the membrane. All compound plates contained negative controls (DMSO) and positive controls (0.15 μM, 4-[(2R,4R)-4-({[1-(2,2-difluoro-1,3-benzodioxol-5-yl)cyclopropyl]carbonyl}amino)-7-(difluoromethoxy)-3,4-dihydro-2H-chromen-2-yl]benzoic acid).
For electrophysiological recording of the “chronic” experiments, the human airway epithelia are mounted in the TECC heating plate for electrophysiological measurement and kept at 37° C. The epithelia are bathed in a NaCl-Ringer solution (120 mM NaCl, 25 mM NaHCO3, 1.2 mM CaCl2, 1.2 mM MgCl2, 0.8 mM KH2PO4, 0.8 mM K2HPO4, pH 7.4, 5 mM glucose) on both the basolateral and apical sides. Test compounds (corrector, co-corrector, 4-[(2R,4R)-4-({[1-(2,2-difluoro-1,3-benzodioxol-5-yl)cyclopropyl]carbonyl}amino)-7-(difluoromethoxy)-3,4-dihydro-2H-chromen-2-yl]benzoic acid, and potentiator, N-(3-carbamoyl-5,5,7,7-tetramethyl-4,7-dihydro-5H-thieno[2,3-c]pyran-2-yl)-1H-pyrazole-5-carboxamide), are re-added to the recording solution prior to measurement. Apical amiloride is used to inhibit the endogenous ENaC currents while forskolin is applied on both apical and basolateral side to stimulate CFTR. Measurements are done during a 20 minute timeframe with recordings every 2 minutes. The increase in Ieq is used as a measure for the increased CFTR activity, EC50 values can be generated by measuring impact of different concentrations of compound on Ieq on primary cells, for this purpose each transwell is treated with a different compound concentration. Inhibitor-172, an inhibitor specific for CFTR, is used to test the specificity of the tested compounds. Raw data were normalized to percentage activity values using the equation: 100×(Sample−Negative control)/(Positive control−Negative Control).

[1] = chronic TECC, AUC = full area under the curve upon forskolin stimulation, with co-corrector and potentiator, 24 hours
[2] = chronic TECC, Ieq = calculations based on the maximum current, with co-corrector and potentiator, 24 hours
[3] = chronic TECC, Ieq = calculations based on the maximum current, with co-corrector and potentiator, 24 hours, read-out: EC50 (nM) (Ieq)
[4] = chronic TECC, AUC = full area under the curve upon forskolin stimulation, with co-corrector and potentiator, 24 hours, read-out: EC50 (nM) (AUC)

T1 sequence (P13569 with tags, fused parts or gaps DEL508-508): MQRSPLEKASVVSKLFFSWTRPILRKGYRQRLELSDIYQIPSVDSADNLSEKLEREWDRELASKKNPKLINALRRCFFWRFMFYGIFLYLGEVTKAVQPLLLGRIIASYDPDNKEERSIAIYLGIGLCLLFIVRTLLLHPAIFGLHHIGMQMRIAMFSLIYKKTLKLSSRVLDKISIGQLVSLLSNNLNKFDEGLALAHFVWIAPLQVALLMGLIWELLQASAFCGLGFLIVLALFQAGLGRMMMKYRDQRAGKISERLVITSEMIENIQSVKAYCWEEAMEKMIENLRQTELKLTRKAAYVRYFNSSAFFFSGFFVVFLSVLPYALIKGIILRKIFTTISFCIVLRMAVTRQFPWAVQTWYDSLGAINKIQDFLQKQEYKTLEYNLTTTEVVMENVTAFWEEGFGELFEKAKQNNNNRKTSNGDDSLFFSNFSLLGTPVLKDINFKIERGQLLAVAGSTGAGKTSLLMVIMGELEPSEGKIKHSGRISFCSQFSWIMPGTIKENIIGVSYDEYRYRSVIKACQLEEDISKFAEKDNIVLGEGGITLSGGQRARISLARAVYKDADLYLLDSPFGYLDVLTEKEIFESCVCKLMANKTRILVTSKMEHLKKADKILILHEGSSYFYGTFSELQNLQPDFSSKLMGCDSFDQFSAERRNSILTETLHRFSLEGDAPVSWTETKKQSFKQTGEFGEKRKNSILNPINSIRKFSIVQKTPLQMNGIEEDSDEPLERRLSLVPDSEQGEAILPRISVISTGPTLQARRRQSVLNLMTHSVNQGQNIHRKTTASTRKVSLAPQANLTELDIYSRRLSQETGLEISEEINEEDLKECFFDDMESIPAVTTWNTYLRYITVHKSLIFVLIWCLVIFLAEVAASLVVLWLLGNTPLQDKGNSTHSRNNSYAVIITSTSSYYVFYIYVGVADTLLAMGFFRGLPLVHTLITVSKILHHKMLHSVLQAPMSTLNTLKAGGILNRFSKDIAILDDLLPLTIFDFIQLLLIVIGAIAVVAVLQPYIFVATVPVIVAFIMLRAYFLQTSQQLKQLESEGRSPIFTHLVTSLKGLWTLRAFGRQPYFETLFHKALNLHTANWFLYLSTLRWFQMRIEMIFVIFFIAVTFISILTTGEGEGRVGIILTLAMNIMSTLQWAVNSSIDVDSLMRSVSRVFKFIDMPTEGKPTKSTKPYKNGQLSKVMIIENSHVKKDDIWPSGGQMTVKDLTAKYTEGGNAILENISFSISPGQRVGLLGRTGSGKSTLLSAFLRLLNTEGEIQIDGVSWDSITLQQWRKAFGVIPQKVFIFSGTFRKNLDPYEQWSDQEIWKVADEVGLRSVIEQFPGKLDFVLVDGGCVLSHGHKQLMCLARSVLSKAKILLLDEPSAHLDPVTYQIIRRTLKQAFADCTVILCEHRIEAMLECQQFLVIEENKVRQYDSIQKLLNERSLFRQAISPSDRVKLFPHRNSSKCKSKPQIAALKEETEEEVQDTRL

Row | Compound | % Activity at 1 μM (AUC**) [1] [%] | % Activity at 1 μM (Ieq*) [2] [%] | EC50 [3] [nM] | also measured
1 | CC(C)OC(=O)N1CC[C@@H]2CN(c3cc(C(=O)O)nc4c3c(C3CCC3)nn4-c3ccccc3)CC[C@@H]21 (racemic) [compound 610, rac-3-cyclobutyl-1-phenyl-4-[(3aR,7aS)-1-{[(propan-2-yl)oxy]carbonyl}octahydro-5H-pyrrolo[3,2-c]pyridin-5-yl]-1H-pyrazolo[3,4-b]pyridine-6-carboxylic acid] | 471 |  |  | 
2 | Cc1cccc(-n2nc(C(C)C)c3c(N4CCC(C#N)CC4)cc(C(=O)O)nc32)c1 [compound 191, 4-(4-cyanopiperidin-1-yl)-1-(3-methylphenyl)-3-(propan-2-yl)-1H-pyrazolo[3,4-b]pyridine-6-carboxylic acid] |  | 220 | 50 | 
3 | COC1CCN(c2cc(C(=O)O)nc3c2c(C(C)C)nn3-c2cccc(C)c2)CC1 [compound 192, 4-(4-methoxypiperidin-1-yl)-1-(3-methylphenyl)-3-(propan-2-yl)-1H-pyrazolo[3,4-b]pyridine-6-carboxylic acid] |  | 235 | < 30 | 
4 | CC(C)c1nn(-c2ccnc(N3CCOCC3)c2)c2nc(C(=O)O)cc(-c3ccc(N4CCOCC4)cc3)c12 [compound 201, 4-[4-(morpholin-4-yl)phenyl]-1-[2-(morpholin-4-yl)pyridin-4-yl]-3-(propan-2-yl)-1H-pyrazolo[3,4-b]pyridine-6-carboxylic acid] | 254 |  |  | EC50 [4]: < 30 nM
5 | CC(C)c1nn(-c2cccc(N3CCOCC3)c2)c2nc(C(=O)O)cc(-c3cnc(N4CCC(C#N)CC4)nc3)c12 [compound 204, 4-[2-(4-cyanopiperidin-1-yl)pyrimidin-5-yl]-1-[3-(morpholin-4-yl)phenyl]-3-(propan-2-yl)-1H-pyrazolo[3,4-b]pyridine-6-carboxylic acid] |  | 241 | < 30 | 
6 | CO[C@H]1CCC[C@@H](n2nc(C(C)C)c3c(-c4ccc(N5CCOCC5)cc4)cc(C(=O)O)nc32)C1 [compound 205, 1-[(1R,3S)-3-methoxycyclohexyl]-4-[4-(morpholin-4-yl)phenyl]-3-(propan-2-yl)-1H-pyrazolo[3,4-b]pyridine-6-carboxylic acid] |  | 140 | > 1000 | 
7 | COCC1CCN(c2cc(C(=O)O)nc3c2c(C(C)C)nn3-c2cccc(C)c2)CC1 [compound 227, 4-[4-(methoxymethyl)piperidin-1-yl]-1-(3-methylphenyl)-3-(propan-2-yl)-1H-pyrazolo[3,4-b]pyridine-6-carboxylic acid] |  | 300 | 30 | 
8 | COCCC1CCN(c2cc(C(=O)O)nc3c2c(C(C)C)nn3-c2cccc(C)c2)CC1 [compound 228, 4-[4-(2-methoxyethyl)piperidin-1-yl]-1-(3-methylphenyl)-3-(propan-2-yl)-1H-pyrazolo[3,4-b]pyridine-6-carboxylic acid] |  | 280 | < 30 | 
9 | CC(C)c1nn(-c2cccc(N3CCOCC3)n2)c2nc(C(=O)O)cc(-c3ccc(N4CCOCC4)cc3)c12 [compound 244, 4-[4-(morpholin-4-yl)phenyl]-1-[6-(morpholin-4-yl)pyridin-2-yl]-3-(propan-2-yl)-1H-pyrazolo[3,4-b]pyridine-6-carboxylic acid] |  | 210 | < 30 | 
10 | CC(C)c1nn(-c2cc(F)cc(F)c2)c2nc(C(=O)O)cc(-c3ccc(N4CCOCC4)cc3)c12 [compound 268, 1-(3,5-difluorophenyl)-4-[4-(morpholin-4-yl)phenyl]-3-(propan-2-yl)-1H-pyrazolo[3,4-b]pyridine-6-carboxylic acid] |  | 267 | 25 | 
11 | CN(C)C[C@@H](F)C1CCN(c2cc(C(=O)O)nc3c2c(C2CCC2)nn3-c2ccccc2)CC1 [compound 456, 3-cyclobutyl-4-{4-[(1S)-2-(dimethylamino)-1-fluoroethyl]piperidin-1-yl}-1-phenyl-1H-pyrazolo[3,4-b]pyridine-6-carboxylic acid] |  |  |  | EC50 [4]: 120 nM
12 | CCOC(=O)N1CCN(c2cc(C(=O)O)nc3c2c(C2CCC2)nn3-c2ccccc2)CC1 [compound 539, 3-cyclobutyl-4-[4-(ethoxycarbonyl)piperazin-1-yl]-1-phenyl-1H-pyrazolo[3,4-b]pyridine-6-carboxylic acid] | 557 |  |  | 
13 | O=C(O)c1cc(N2CCC(CN3CCCC3)CC2)c2c(C3CCC3)nn(-c3ccccc3)c2n1 [compound 557, 3-cyclobutyl-1-phenyl-4-{4-[(pyrrolidin-1-yl)methyl]piperidin-1-yl}-1H-pyrazolo[3,4-b]pyridine-6-carboxylic acid] | 262 |  |  | % Activity at 3 μM (AUC) (chronic TECC, 3 μM, AUC = full area under the curve upon forskolin stimulation, with co-corrector and potentiator, 24 hours): 384%
14 | O=C(O)c1cc(N2CCC(N3CCOCC3)CC2)c2c(C3CCC3)nn(-c3ccccc3)c2n1 [compound 560, 3-cyclobutyl-4-[4-(morpholin-4-yl)piperidin-1-yl]-1-phenyl-1H-pyrazolo[3,4-b]pyridine-6-carboxylic acid] |  |  |  | pEC50: > 7.52
15 | O=C(O)c1cc(N2CCC(CCN3CCCC3)CC2)c2c(C3CCC3)nn(-c3ccccc3)c2n1 [compound 574, 3-cyclobutyl-1-phenyl-4-{4-[2-(pyrrolidin-1-yl)ethyl]piperidin-1-yl}-1H-pyrazolo[3,4-b]pyridine-6-carboxylic acid] | 190 |  |  | 
16 | O=C(O)c1cc(N2CCC(CCN3CCOCC3)CC2)c2c(C3CCC3)nn(-c3ccccc3)c2n1 [compound 575, 3-cyclobutyl-4-{4-[2-(morpholin-4-yl)ethyl]piperidin-1-yl}-1-phenyl-1H-pyrazolo[3,4-b]pyridine-6-carboxylic acid] | 290 |  |  | pEC50: 7.00
17 | O=C(O)c1cc(N2CCC(N3CCCCC3)CC2)c2c(C3CCC3)nn(-c3ccccc3)c2n1 [compound 576, 4-([1,4′-bipiperidin]-1′-yl)-3-cyclobutyl-1-phenyl-1H-pyrazolo[3,4-b]pyridine-6-carboxylic acid] | 183 |  |  | 
18 | CC(C)c1nn(-c2ccc(F)cc2)c2nc(C(=O)O)cc(N3CCC(C(C)(C)O)CC3)c12 [compound 656, 1-(4-fluorophenyl)-4-[4-(2-hydroxypropan-2-yl)piperidin-1-yl]-3-(propan-2-yl)-1H-pyrazolo[3,4-b]pyridine-6-carboxylic acid] |  |  |  | EC50 [4]: 48 nM
19 | O=C(O)c1cc(N2CCC(N3CCOCC3)CC2)c2c(C3CCC3)nn(-c3ccc(F)cc3)c2n1 [compound 679, 3-cyclobutyl-1-(4-fluorophenyl)-4-[4-(morpholin-4-yl)piperidin-1-yl]-1H-pyrazolo[3,4-b]pyridine-6-carboxylic acid] | 373.3333 |  |  | EC50 [4]: 28 nM
20 | CC(C1CCN(c2cc(C(=O)O)nc3c2c(C2CCC2)nn3-c2ccccc2)CC1)N1CCOCC1 (stereo not shown) [compound 683, 3-cyclobutyl-4-{4-[1-(morpholin-4-yl)ethyl]piperidin-1-yl}-1-phenyl-1H-pyrazolo[3,4-b]pyridine-6-carboxylic acid] | 196.675 |  |  | 
21 | CC1CCN(CCC2CCN(c3cc(C(=O)O)nc4c3c(C3CCC3)nn4-c3ccccc3)CC2)CC1 [compound 687, 3-cyclobutyl-4-{4-[2-(4-methylpiperidin-1-yl)ethyl]piperidin-1-yl}-1-phenyl-1H-pyrazolo[3,4-b]pyridine-6-carboxylic acid] | 263.3333 |  |  | EC50 [4]: 53.5 nM

From patent publication US9796711B2, “Substituted pyrazolo[3,4-b]pyridin-6-carboxylic acids and method of use” (AbbVie S.àr.l., priority 2015, dated 2017)
